We go through five compounds from US20060252800A1, “Anti-leishmania agent” (priority 2003, published 2006).

The test system of one series is Leishmania (L. major). Put plainly: Leishmania protozoa proliferation inhibition assay. The class given is cell-based. The note with it: for OD level (number of viable Leishmania protozoa): 48 hours at 27° C., absorbance 450 nm minus 630 nm; for IC50: calculated from the graphs of FIGS. 1 to 4 (concentration vs number of viable leishmania protozoa), read-out: Concentration inhibiting 50% leishmania proliferation. The procedure:
After dissolving each of the obtained compounds in dimethylsulfoxide (hereinafter referred to as DMSO), the resultant was diluted by 9 steps in Medium 199 medium (Invitrogen) to the indicated concentration, filtrated with a membrane filter, and each of the filtration was made as a sample solution. […] By keeping the solution at 27° C., incubation was performed under 5% CO2, for 48 hours. Then, TetraColor ONE (tradename: Seikagaku Corporation) reagent was added thereto and further incubated for 6 hours. Then, the absorbance at a wavelength of 450 nm was measured for the 96-well microtiter plate with a microplate reader, the wave length of 630 nm was made as reference wave length, and in order to exclude background effect, the absorbance at 630 nm was excluded from the one at 450 nm, and the OD level was calculated as a level to indicate the number of viable Leishmania protozoa. The assay was performed by three wells at a time for each concentration of each sample, and the mean level was made as OD level. […] Amphotericin B was used as positive control. […] Inhibiting effect against […] protozoa for each sample was similar or more compared with that of Amtephotericin B.

Where [1] appears, read: Table 2, sample concentration 0.0001 mg/ml.
[2] abbreviates: Table 2, sample concentration 0.0007 mg/ml.
The mark [3] stands for this setting: Table 2, sample concentration 0.002 mg/ml.
Where [4] appears, read: Table 2, sample concentration 0.008 mg/ml.
[5] abbreviates: Table 2, sample concentration 0.025 mg/ml.
Where [6] appears, read: Table 2, sample concentration 0.084 mg/ml.
Where [7] appears, read: Table 2, sample concentration 0.279 mg/ml.
Where [8] appears, read: Table 2, sample concentration 0.93 mg/ml.
[9] abbreviates: Table 2, sample concentration 3.1 mg/ml.
Setting [10] is: Table 2, sample concentration 2E−04 mg/ml.
Setting [11] is: Table 3, sample concentration 0.001 mg/ml.
Where [12] appears, read: Table 3, sample concentration 0.002165 mg/ml.
Setting [13] is: Table 3, sample concentration 0.0072171 mg/ml.
Where [14] appears, read: Table 3, sample concentration 0.02406 mg/ml.
The mark [15] stands for this setting: Table 3, sample concentration 0.08019 mg/ml.
Setting [16] is: Table 3, sample concentration 0.2673 mg/ml.
Where [17] appears, read: Table 3, sample concentration 0.891 mg/ml.
Setting [18] is: Table 3, sample concentration 2.97 mg/ml.
Where [19] appears, read: Table 3, sample concentration 9.9 mg/ml.
Setting [20] is: Table 3, sample concentration 33 mg/ml.

With `CCCC[n+]1ccc(/C=c2\s/c(=C3/Sc4ccccc4N3C)c(=O)n2CC)cc1.[Br-]` [I (b), 1-butyl-4-[3-ethyl-{5-(3-methyl-2(3H)-benzothiazolylidene)-4-oxo-2-thiazolidinylidene}methyl]pyridinium=bromide], the melting point – broadly, the temperature, or range, at which the solid turns liquid – is 299 to 300 °C. For the same compound, the “OD level (number of viable Leishmania protozoa)” value (“OD level” below) in the series on Leishmania (L. major) (setting [1]) was found to be 0.363. Further, in the series with Leishmania (L. major) (setting [2]), the “OD level” value is listed as 0.345. Moreover, in the series on Leishmania (L. major) (setting [3]), the “OD level” value stood at 0.335. Besides, the “OD level” value with Leishmania (L. major) (setting [4]) amounted to 0.335. In the series with Leishmania (L. major) (setting [5]), the “OD level” value was 0.435. Moreover, the “OD level” value with Leishmania (L. major) (setting [6]) is given as 0.465. Further, in the series on Leishmania (L. major) (setting [7]), the “OD level” value is on record as 0.106. Further, the “OD level” value in the series with Leishmania (L. major) (setting [8]) is 0.032. Also, in the series on Leishmania (L. major) (setting [9]), the “OD level” value was 0.032. The “OD level” value with Leishmania (L. major) (setting [10]) turned out to be 0.343. In addition, the IC50 in the series with Leishmania (L. major) is 3700 nM.

As for `CN1C(=c2sc(=Cc3cccc[n+]3C)n(CC3CCCO3)c2=O)Sc2ccc3ccccc3c21.Cc1ccc(S(=O)(=O)[O-])cc1` (stereo not drawn) [IV (l), 2-[{5-(3-methyl-2(3H)-benzobenzo[e]thiazolilidene)-4-oxo-3-(2-tetrahydrofuranyl)methyl-2-thiazolidinylidene}methyl]-1-methylpyridinium=p-toluenesulfonate], the “OD level” value is 0.357 with Leishmania (L. major) (setting [11]); 0.346 in the series with Leishmania (L. major) (setting [12]); 0.358 with Leishmania (L. major) (setting [13]); 0.357 with Leishmania (L. major) (setting [14]); 0.377 with Leishmania (L. major) (setting [15]); 0.391 in the series with Leishmania (L. major) (setting [16]). The “OD level” value worked out at 0.178 in the series on Leishmania (L. major) (setting [17]), 0.080 with Leishmania (L. major) (setting [18]), 0.035 in the series with Leishmania (L. major) (setting [19]) and 0.029 with Leishmania (L. major) (setting [20]). Moreover, the IC50 with Leishmania (L. major) was 1300 nM.

On to `CCN1C(=O)CS/C1=C\c1sc2ccccc2[n+]1CC` [V (b), 2-[(4-oxo-3-ethyl-2-thiazolidinylidene)methyl]-3-ethylbenzothiazolium=p-toluenesulfonate], for which the “OD level” value in the series on Leishmania (L. major) (Table 1, sample concentration 0.001 mg/ml) worked out at 0.441; with Leishmania (L. major) (Table 1, sample concentration 0.016384 mg/ml), 0.458; in the series with Leishmania (L. major) (Table 1, sample concentration 0.04096 mg/ml), 0.520; in the series on Leishmania (L. major) (Table 1, sample concentration 0.1024 mg/ml) it was 0.533; in the series with Leishmania (L. major) (Table 1, sample concentration 0.256 mg/ml), 0.363; in the series on Leishmania (L. major) (Table 1, sample concentration 0.64 mg/ml), 0.145. The “OD level” value is 0.047 with Leishmania (L. major) (Table 1, sample concentration 1.6 mg/ml); 0.040 in the series on Leishmania (L. major) (Table 1, sample concentration 4 mg/ml); 0.042 in the series on Leishmania (L. major) (Table 1, sample concentration 10 mg/ml); 0.056 in the series with Leishmania (L. major) (Table 1, sample concentration 25 mg/ml, mean of three wells). Also, the IC50 with Leishmania (L. major) is 1200 nM.

In the case of `C[C@@H]1[C@H](O)[C@@H](C)/C=C/C=C/C=C/C=C/C=C/C=C/C=C/[C@H](O[C@@H]2O[C@H](C)[C@@H](O)[C@H](N)[C@@H]2O)C[C@@H]2O[C@](O)(C[C@@H](O)C[C@@H](O)[C@H](O)CC[C@@H](O)C[C@@H](O)CC(=O)O[C@H]1C)C[C@H](O)[C@H]2C(=O)O` [Amphotericin B, reference compound], the “OD level” value with Leishmania (L. major) (Table 1, positive control line, concentration 0.001 mg/ml) was 0.428; with Leishmania (L. major) (Table 1, positive control line, concentration 0.0121094 mg/ml) it was 0.394; in the series on Leishmania (L. major) (Table 1, positive control line, concentration 0.0242188 mg/ml) it was 0.373; with Leishmania (L. major) (Table 1, positive control line, concentration 0.0484375 mg/ml) it was 0.352; with Leishmania (L. major) (Table 1, positive control line, concentration 0.096875 mg/ml) it was 0.349; in the series with Leishmania (L. major) (Table 1, positive control line, concentration 0.19375 mg/ml) it was 0.044. Further, the “OD level” value in the series on Leishmania (L. major) (Table 1, positive control line, concentration 0.3875 mg/ml) is 0.036; in the series with Leishmania (L. major) (Table 1, positive control line, concentration 0.775 mg/ml), 0.036; in the series on Leishmania (L. major) (Table 1, positive control line, concentration 1.55 mg/ml), 0.036; in the series with Leishmania (L. major) (Table 1, positive control line, concentration 3.1 mg/ml), 0.034; in the series on Leishmania (L. major) (setting [11]) it was 0.351; with Leishmania (L. major) (setting [12]), 0.338. The “OD level” value is reported as 0.325 in the series on Leishmania (L. major) (setting [13]); 0.331 in the series on Leishmania (L. major) (setting [14]); 0.311 in the series with Leishmania (L. major) (setting [15]); 0.273 in the series with Leishmania (L. major) (setting [16]); 0.051 with Leishmania (L. major) (setting [17]); 0.029 in the series on Leishmania (L. major) (setting [18]). Besides, the “OD level” value was found to be 0.029 in the series on Leishmania (L. major) (setting [19]) and 0.030 with Leishmania (L. major) (setting [20]). Also, in the series with Leishmania (L. major), the IC50 is 140 nM.

In the case of `CCn1c(=O)/c(=C2\Sc3ccccc3N2C)s/c1=C\c1cccc[n+]1Cc1ccc(C(=O)O)cc1.[Br-]` [I (d), 1-(p-carboxyphenyl)methyl-2-[3-ethyl-{5-(3-methyl-2(3H)-benzothiazolylidene)-4-oxo-2-thiazolidinylidene}methyl]pyridinium=bromide], the “OD level” value in the series with Leishmania (L. major) (setting [1]) is 0.360; in the series on Leishmania (L. major) (setting [2]), 0.359; with Leishmania (L. major) (setting [3]) it was 0.348; with Leishmania (L. major) (setting [4]), 0.364; in the series on Leishmania (L. major) (setting [5]), 0.384; in the series with Leishmania (L. major) (setting [6]), 0.346. In addition, the “OD level” value in the series on Leishmania (L. major) (setting [7]) is on record as 0.360; in the series with Leishmania (L. major) (setting [8]), 0.333; in the series on Leishmania (L. major) (setting [9]), 0.242; in the series with Leishmania (L. major) (setting [10]), 0.356. Further, the IC50 in the series on Leishmania (L. major) was 5300 nM.
